Legend:
Assay type in all cases: cell-based, human
A375 tumor cells = experiment: Western blot (BRAF, phosphorylated MEK and ERK)
Procedure: FIG. 17 is a series of Western blots that show changes in protein levels and state of phosphorylation after treatment with an Hsp90 inhibitor. A primary Anti BRAF (H145) antibody was used at a 1:5000 dilution. A secondary Goat anti rabbit antibody was used at a dilution of 1:5000. 30 ug total protein was added to each well.
Cell lysates were prepared using RIPA buffer from Santa Cruz (Santa Cruz, Calif.) containing protease and phosphatase inhibitors. Protein concentrations were determined using Bradford assay from BioRad (Hercules, Calif.). Equal amounts of protein were loaded in each well for PAGE analysis. Proteins were transferred to PVDF membranes from Pierce Biotechnology (Rockford, Ill.). Blocking and both primary and secondary antibody incubations were performed using Starting Block from Pierce (Rockford, Ill.). Blots were washed with 1×TBS with 0.5% tween 20. Primary antibodies used BRAF H-145 and TRP-2 from Santa Cruz (Santa Cruz, Calif.), and Phos ERK from Cell Signaling Technologies (Danvers, Mass.) beta actin from Sigma (St. Louis, Mo.). Goat anti-rabbit HRP conjugated secondary antibody was purchased from Pierce (Rockford, Ill.). Chemiluminesce was performed using the Femto kit form Pierce (Rockford, Ill.). […] Sizes of proteins were determined by comparison to the Broad prestained protein standard ladder from BioRad (Hercules, Calif.).

MU89 cell line = experiment: Western blot (BRAF, Melan-A/MART-1, TRP-2, phosphorylated MEK and ERK)
Procedure: A. Western blot performed on extracts of the MU89 cell line treated as indicated for three days. Extracts were probed with antibodies to BRAF, Melan-A/MART-1, TRP-2, or beta-Actin. 30 μg of total protein was loaded in each lane of the gel. […] B. Protein gel electrophoresis was performed using 30 μg of total protein extracts prepared from the indicated cell lines. Cells were untreated (control) or treated with 0.15 μg/ml of BIIB021 for three days. After transfer Western blots were probed with antibodies to phosphorylated MEK (p-MEK) or β-Actin.
FIG. 17 is a series of Western blots that show changes in protein levels and state of phosphorylation after treatment with an Hsp90 inhibitor. A primary Anti BRAF (H145) antibody was used at a 1:5000 dilution. A secondary Goat anti rabbit antibody was used at a dilution of 1:5000. […]
To address the effect of Hsp90 inhibition on the MAP kinase pathway, protein levels and signaling activity (protein phosphorylation levels) of the proteins in this pathway were analyzed directly. […]
Cell lysates were prepared using RIPA buffer from Santa Cruz (Santa Cruz, Calif.) containing protease and phosphatase inhibitors. Protein concentrations were determined using Bradford assay from BioRad (Hercules, Calif.). […] Sizes of proteins were determined by comparison to the Broad prestained protein standard ladder from BioRad (Hercules, Calif.).

[1] = test system: MM96L+ melanoma cell line; experiment: Intracellular antibody staining and flow cytometry (Melan-A/MART-1, gp100/HMB45); conditions: MM96L+ (BRAF M/WT, NRAS WT); 3 days; 17-AEP 1.00, CCT018159 5.00, PU-H71 0.30 μg/ml
Procedure: (§1) Several cell lines expressing varying native-sequences, (wild-type (WT) or mutant (M) alleles of these genes were evaluated), to determine if there is a relationship between levels of Hsp90 inhibitor-mediated antigen up-regulation and BRAF and NRAS mutational status. Mutant status of the NRAS and BRAF loci were determined previously.
(§2) Cells were plated at a density of 1×10^5 in 1 ml of medium in a 24-well plate and cultured for varying times as indicated in results. Typically, 3 days of culture in the presence of Hsp90 inhibitors was optimal for the functional studies performed. After incubation, cells were collected by trypsinization and then evaluated by flow cytometry.
(§3) Intracellular staining and flow cytometric analyses of cytoplasmic Melan-A/MART-1, and gp100 expression were performed as described previously. Cells were fixed with 1% formaldehyde, permeabilized with 0.1% saponin, stained with monoclonal antibodies to melanocyte antigens. Antibodies were obtained with specificity for: Melan-A/MART-1 from Vector Labs (Burlingame, Calif.); gp100/HMB45 from DakoCytomation (Carpinteria, Calif.) and then visualized with goat anti-mouse FITC-conjugated secondary antibody from Invitrogen (Frederick, Md.). The level of EGFP was determined by flow cytometry of unfixed cells washed and resuspended in 1×PBS. […]

Roth melanoma cell line = experiment: Intracellular antibody staining and flow cytometry (gp100/HMB45); conditions: Roth (BRAF WT, NRAS M/M); 3 days; 17-AEP 0.50, CCT018159 2.50, PU-H71 0.25 μg/ml
Procedure: as §1, §2, §3

MM455 melanoma cell line = experiment: as above; conditions: MM455 (BRAF M/WT, NRAS WT); 3 days; 17-AEP 0.50, CCT018159 2.50, PU-H71 0.25 μg/ml
Procedure: as §1, §2, §3

U2-OS osteosarcoma cells = experiment: Surface antibody staining and flow cytometry (MHC Class I/II)
Summary of the method: (§4)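 Cells pre-treated 4 days with IFN-beta, then re-plated for 3-day treatments. Harvested non-enzymatically and stained on ice for 30 min with W6/32 (Class I) or L243 (Class II), then FITC goat anti-mouse secondary; surface levels quantified by flow cytometry.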

[2] = test system: Raji B cell lymphoma cells; experiment: as above
Summary of the method: as §4

[3] = U2-OS cells, Table 20, single agent or simultaneous combination
[4] = U2-OS, three days, IFN-β 5000 Units/ml, IFN-γ 100 ng/ml, PU-H71 0.3 mg/ml
[5] = three days, IFN-β 5000 Units/ml, IFN-γ 100 ng/ml, PU-H71 0.3 mg/ml

## CO[C@H]1/C=C\C=C(/C)C(=O)NC2=CC(=O)C(NCCN3CCCC3)=C(C[C@@H](C)C[C@H](OC)[C@H](O)[C@@H](C)/C=C(\C)[C@@H]1OC(N)=O)C2=O [17-AEP]
A375 tumor cells; 3 days
  BRAF protein level (Western blot): reduces levels of BRAF
A375 tumor cells; 3 days (FIG. 17)
  Phosphorylated MEK and Phosphorylated ERK levels (Western blot): decreased levels
MU89 cell line; 3 days
  BRAF protein level (Western blot): reduces levels of BRAF
MU89 cell line; 3 days (FIG. 17)
  Phosphorylated MEK and Phosphorylated ERK levels (Western blot): decreased levels

## CCc1cc(-c2n[nH]c(C)c2-c2ccc3c(c2)OCCO3)c(O)cc1O [CCT018159]
[1]
  HMB45, level of induction relative to untreated control cells: 1.81
  MART-1, level of induction relative to untreated control cells: 3.04
Roth melanoma cell line
  HMB45, level of induction relative to untreated control cells: 1.95
MM455 melanoma cell line
  HMB45, level of induction relative to untreated control cells: 1.16

## CC(C)NCCCn1c(Sc2cc3c(cc2I)OCO3)nc2c(N)ncnc21 [PU-H71]
U2-OS osteosarcoma cells; [3]
  L243 (MHC Class II surface staining): 1.9
  W6/32 (MHC Class I surface staining): 109.0
U2-OS osteosarcoma cells; U2-OS, PU-H71 in combination with interferons
  Class I induction, combination: highest levels are achieved
U2-OS osteosarcoma cells; U2-OS, PU-H71 together with IFN-gamma
  Class II antigen induction seen with IFN-gamma, combination: prevented
U2-OS osteosarcoma cells; U2-OS, single agent
  L243 (MHC Class II surface staining): 1.8
U2-OS osteosarcoma cells; [4]
  MHC Class I, geometric mean of surface staining (W6/32): 87
  MHC Class II, geometric mean of surface staining (L2443): 4
U2-OS osteosarcoma cells; U2-OS, three days, IFN-β 5000 Units/ml, PU-H71 0.075-0.3 mg/ml
  MHC Class I, geometric mean of surface staining (W6/32): 108
[2]; 4 day IFN-β pre-treatment (5000 Units/ml), then 3 days with fresh IFN-β, with PU-H71 0.3 mg/ml where labelled (label IFN-β: no inhibitor)
  Class I MHC, geometric mean of surface staining (W6/32): 129
[2]; 4 day IFN-β pre-treatment (5000 Units/ml), then 3 days without IFN-β, with PU-H71 0.3 mg/ml where labelled (label IFN-β: no inhibitor)
  Class I MHC, geometric mean of surface staining (W6/32): 139
[2]; single agent
  L243 (MHC Class II surface staining): 79.0
[2]; single agent for 3 days, no IFN-β pre-treatment, IFN-β 5000 Units/ml, PU-H71 0.3 mg/ml
  Class I MHC, geometric mean of surface staining (W6/32): 157
[2]; [5]
  MHC Class I, geometric mean of surface staining (W6/32): 139
  MHC Class II, geometric mean of surface staining (L2443): 160
[2]; three days, IFN-β 5000 Units/ml, PU-H71 0.075-0.3 mg/ml
  MHC Class I, geometric mean of surface staining (W6/32): 79
